# Test results: ChEMBL document CHEMBL1201862, “PubChem BioAssay data set” (2004)
# Calls of active or inactive are those of the source.
# Legend:
# [1] = cells
# [2] = inhibitors of intracellular T. cruzi replication, confirmation, NIH3T3 host cells, beta-gal luminescence (AID 2044); type: functional, cell-based;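 note: intracellular parasites grown in NIH/3T3 mouse fibroblasts as host cells; luminescent beta-galactosidase reporter signal from transgenic T. cruzi replicating inside host cells; inhibitors lower the luminescence signal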
# [3] = cytotoxicity toward NIH3T3 fibroblasts, dose response, counter-screen, cell-based, ATP luminescence, mouse fibroblasts (AID 2010); type: functional;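 note: cells exposed to compound for about 90 hours before reading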
# [4] = target: FAD-linked sulfhydryl oxidase ALR (Homo sapiens, UniProt P55789); experiment: inhibitors of human ALR sulfhydryl oxidase, dose response, biochemical, H2O2 detection, luminescence, cherry-pick (AID 493248)
# [5] = target: Voltage-gated inwardly rectifying potassium channel KCNH2 (Homo sapiens, UniProt Q12809); experiment: hERG protection from proarrhythmic block, potency, dose response, cell-based, thallium flux (AID 2121); type: ADME
# [6] = target: T1, Caspase-6 (Homo sapiens, UniProt P55212); experiment: human caspase-6 inhibitors, dose response, biochemical, VEID-R110 fluorescence, cherry-pick (AID 720632)
# T1 sequence (P55212 whole entry): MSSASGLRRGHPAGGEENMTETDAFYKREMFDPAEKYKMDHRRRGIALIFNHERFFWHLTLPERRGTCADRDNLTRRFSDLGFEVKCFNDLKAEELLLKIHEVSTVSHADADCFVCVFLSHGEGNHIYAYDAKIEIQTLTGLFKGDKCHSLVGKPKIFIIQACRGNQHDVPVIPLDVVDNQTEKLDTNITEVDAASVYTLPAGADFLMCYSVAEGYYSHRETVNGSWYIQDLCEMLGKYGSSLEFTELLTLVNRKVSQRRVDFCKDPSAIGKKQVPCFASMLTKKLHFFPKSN
# [7] = target: T2, Oxysterols receptor LXR-beta (Homo sapiens, UniProt P55055); experiment: LXR agonists, Gal4 luciferase reporter, dose response, counter-screen for ssDAF-12 agonist project, cell-based, luminescence, HEK293, S. stercoralis campaign (AID 720737); type: functional; settings: read-out: IC50 (the source's name)
# T2 sequence (P55055 whole entry): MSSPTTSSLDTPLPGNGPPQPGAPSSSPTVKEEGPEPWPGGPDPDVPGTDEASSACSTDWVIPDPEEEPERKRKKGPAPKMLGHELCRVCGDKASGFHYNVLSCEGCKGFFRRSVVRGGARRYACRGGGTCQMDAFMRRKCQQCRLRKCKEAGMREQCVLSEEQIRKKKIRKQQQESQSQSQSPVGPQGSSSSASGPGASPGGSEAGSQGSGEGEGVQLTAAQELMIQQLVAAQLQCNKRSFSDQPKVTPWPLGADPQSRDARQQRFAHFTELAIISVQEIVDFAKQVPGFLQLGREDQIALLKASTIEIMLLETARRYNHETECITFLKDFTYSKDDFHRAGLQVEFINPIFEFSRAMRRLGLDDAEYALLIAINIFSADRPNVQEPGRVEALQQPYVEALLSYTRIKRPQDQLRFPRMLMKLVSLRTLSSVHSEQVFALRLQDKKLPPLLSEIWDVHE
# [8] = Luminescence-based cell-based high throughput dose response assay to identify activators of the DAF-12 from the parasite S. stercoralis (ssDAF-12).; type: functional
# [9] = M. tuberculosis H37Rv growth inhibitors, H37Rv strain (AID 1626); type: functional
# [10] = Vero cell cytotoxicity, dose response, cytotoxicity control for Vif-APOBEC3G degradation inhibitor project, Vero cells (AID 1117358); type: functional; settings: Human immunodeficiency virus 1, Vero
# [11] = HepG2 cell cytotoxicity, dose response, cytotoxicity control for Shn3 inhibitor project, CellTiter-Glo, cherry-picked (AID 624134); type: functional, cell-based
# [12] = Shn3 3'UTR reporter inhibitors, dose response, cell-based, Clone20 osteoblasts, firefly luciferase, cherry-picked (AID 624132); type: functional;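 note: firefly luciferase luminescence from reporter carrying the Shn3 3'UTR in osteoblasts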
# [13] = target: T3, COUP transcription factor 2 (Homo sapiens, UniProt P24468); experiment: Luminescence-based cell-based high throughput dose response assay to identify inhibitors of COUP-TFII (NR2F2).; type: functional;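 note: HEK293 cells transiently cotransfected with COUP-TFII expression vector and reporter; luciferase reporter luminescence driven by COUP-TFII from the pX2-168 reporter plasmid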
# T3 sequence (P24468 whole entry): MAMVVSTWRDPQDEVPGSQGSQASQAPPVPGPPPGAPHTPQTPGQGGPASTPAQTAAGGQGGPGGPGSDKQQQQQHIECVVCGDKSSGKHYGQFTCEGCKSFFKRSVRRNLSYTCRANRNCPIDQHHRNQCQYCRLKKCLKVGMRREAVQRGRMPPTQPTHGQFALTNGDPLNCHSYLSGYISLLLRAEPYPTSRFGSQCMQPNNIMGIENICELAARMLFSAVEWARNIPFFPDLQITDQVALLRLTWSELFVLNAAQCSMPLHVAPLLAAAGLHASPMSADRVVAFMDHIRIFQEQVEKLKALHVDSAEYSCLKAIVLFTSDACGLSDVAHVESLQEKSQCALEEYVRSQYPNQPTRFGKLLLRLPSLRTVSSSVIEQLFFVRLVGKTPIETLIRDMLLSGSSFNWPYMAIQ
# [14] = control 3'UTR Renilla luciferase suppression, dose response, counter-screen for Shn3 inhibitor project, cell-based, Clone20-Shn3RL, cherry-picked (AID 624133); type: functional
# [15] = Luminescence Cell-Based Dose Retest to Confirm Inhibitors of Cancer Stem Cells. [Related pubchem assays (depositor defined):AID2717, AID2721]; type: functional; settings: Homo sapiens
# [16] = system: INS1; experiment: beta cell apoptosis inhibitors, cytokine rescue, dose response, luminescence, retest (AID 449756); type: functional, cell-based; settings: Rattus norvegicus;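 note: cell death triggered by IL-1 beta plus TNF-alpha plus IFN-gamma mixture; protective hits raise ATP signal compared with cytokine alone wells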
# [17] = P. falciparum Dd2 growth inhibitors, dose response, SYBR Green, cherry-picked samples (AID 1159567); type: functional, cell-based
# [18] = HepG2 cell cytotoxicity, dose response, cytotoxicity control, cherry-picked samples (AID 1159577); type: functional, cell-based
# [19] = target: T4, Rac GTPase-activating protein 1 (Homo sapiens, UniProt Q9H0H5); experiment: MgcRacGAP GTPase-activating activity inhibitors, confirmation, biochemical, ADP Hunter fluorescence, primary and confirmatory (AID 624330); type: functional
# T4 sequence (Q9H0H5 whole entry): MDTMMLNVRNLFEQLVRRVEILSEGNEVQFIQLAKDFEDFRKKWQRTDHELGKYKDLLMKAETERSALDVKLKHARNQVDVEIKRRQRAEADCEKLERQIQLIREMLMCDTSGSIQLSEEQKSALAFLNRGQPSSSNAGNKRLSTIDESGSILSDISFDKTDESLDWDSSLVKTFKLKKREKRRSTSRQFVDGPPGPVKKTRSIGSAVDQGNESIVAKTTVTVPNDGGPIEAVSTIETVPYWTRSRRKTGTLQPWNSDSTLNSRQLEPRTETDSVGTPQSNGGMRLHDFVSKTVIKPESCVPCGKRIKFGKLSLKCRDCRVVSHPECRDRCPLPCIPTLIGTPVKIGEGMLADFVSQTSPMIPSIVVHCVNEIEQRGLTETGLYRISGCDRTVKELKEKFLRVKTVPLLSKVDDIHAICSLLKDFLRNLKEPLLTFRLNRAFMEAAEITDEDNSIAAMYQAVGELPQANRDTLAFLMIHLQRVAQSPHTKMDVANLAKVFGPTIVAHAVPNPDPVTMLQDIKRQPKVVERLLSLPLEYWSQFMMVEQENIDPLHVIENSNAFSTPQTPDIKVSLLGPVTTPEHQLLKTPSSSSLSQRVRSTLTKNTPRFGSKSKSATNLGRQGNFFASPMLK
# [20] = target: Protein Wnt-3a (Mus musculus, UniProt P27467); experiment: Wnt3a-driven reporter signaling inhibition, dose response, selectivity assay for Gli-SUFU antagonist project, Wnt-LIGHT cells, luminescence (AID 651570); type: functional; settings: read-out: IC50_Mean;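 note: Wnt-LIGHT reporter cells stimulated with conditioned medium from Wnt3a-producing cells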
# [21] = C. albicans growth with fluconazole, confirmation, fluorescence, retest (AID 2467); type: functional, cell-based
# [22] = system: Streptococcus; experiment: Group A Streptococcus viability loss, dose response, counter-screen for streptokinase expression inhibitor project, luminescence, BacTiterGlo (AID 1915); type: functional, organism-based;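 note: potency for reduction of bacterial viability or growth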
# [23] = system: Streptococcus sp. 'group A'; experiment: growth inhibition of control SK(-) GAS strain, dose response, counter-screen for streptokinase expression inhibitor project, luminescence, kanamycin, BacTiterGlo, confirmation (AID 1900); type: functional, organism-based
# [24] = NIH-3T3 fibroblast cytotoxicity, dose response, cytotoxicity control, cell-based, fluorescence, Alamar Blue, secondary assay (AID 2327); type: functional;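 note: NIH-3T3 mouse fibroblasts cultured with fluconazole at 8 µg/mL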
# Voltage-gated inwardly rectifying potassium channel KCNH2, sequence (Q12809 whole entry): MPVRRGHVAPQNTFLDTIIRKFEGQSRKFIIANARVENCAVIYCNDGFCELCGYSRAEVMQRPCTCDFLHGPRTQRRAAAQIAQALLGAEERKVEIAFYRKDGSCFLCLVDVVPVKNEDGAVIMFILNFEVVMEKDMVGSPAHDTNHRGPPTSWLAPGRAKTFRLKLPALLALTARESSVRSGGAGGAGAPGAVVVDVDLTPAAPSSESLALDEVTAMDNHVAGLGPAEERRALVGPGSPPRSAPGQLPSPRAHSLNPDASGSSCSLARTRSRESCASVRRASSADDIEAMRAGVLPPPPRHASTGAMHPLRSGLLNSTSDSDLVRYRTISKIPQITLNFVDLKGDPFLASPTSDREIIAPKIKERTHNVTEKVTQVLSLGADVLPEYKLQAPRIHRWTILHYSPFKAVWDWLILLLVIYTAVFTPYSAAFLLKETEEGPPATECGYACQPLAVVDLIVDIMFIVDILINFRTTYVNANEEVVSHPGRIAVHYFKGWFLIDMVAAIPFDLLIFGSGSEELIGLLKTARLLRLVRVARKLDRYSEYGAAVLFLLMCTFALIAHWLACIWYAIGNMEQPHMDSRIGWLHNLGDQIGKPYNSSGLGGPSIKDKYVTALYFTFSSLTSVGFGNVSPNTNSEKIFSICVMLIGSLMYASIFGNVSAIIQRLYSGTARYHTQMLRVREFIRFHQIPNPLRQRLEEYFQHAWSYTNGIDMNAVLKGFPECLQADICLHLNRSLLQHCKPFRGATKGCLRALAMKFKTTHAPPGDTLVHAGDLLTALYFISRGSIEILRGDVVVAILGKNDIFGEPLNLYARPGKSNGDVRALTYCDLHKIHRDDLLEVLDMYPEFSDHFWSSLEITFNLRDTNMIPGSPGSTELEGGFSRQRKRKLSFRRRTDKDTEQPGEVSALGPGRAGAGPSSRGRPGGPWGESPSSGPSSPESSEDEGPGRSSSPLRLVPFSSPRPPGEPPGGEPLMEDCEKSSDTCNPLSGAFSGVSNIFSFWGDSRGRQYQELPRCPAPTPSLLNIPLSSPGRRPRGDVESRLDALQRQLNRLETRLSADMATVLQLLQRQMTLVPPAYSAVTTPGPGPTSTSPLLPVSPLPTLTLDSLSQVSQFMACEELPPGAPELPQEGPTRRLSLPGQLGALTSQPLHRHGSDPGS
# FAD-linked sulfhydryl oxidase ALR, sequence (P55789 whole entry): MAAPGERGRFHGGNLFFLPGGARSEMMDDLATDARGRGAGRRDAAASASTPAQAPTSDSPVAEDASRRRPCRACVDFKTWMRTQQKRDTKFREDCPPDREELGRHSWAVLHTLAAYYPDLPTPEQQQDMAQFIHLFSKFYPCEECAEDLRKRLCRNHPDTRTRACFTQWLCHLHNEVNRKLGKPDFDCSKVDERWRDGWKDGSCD
# Protein Wnt-3a, sequence (P27467 whole entry): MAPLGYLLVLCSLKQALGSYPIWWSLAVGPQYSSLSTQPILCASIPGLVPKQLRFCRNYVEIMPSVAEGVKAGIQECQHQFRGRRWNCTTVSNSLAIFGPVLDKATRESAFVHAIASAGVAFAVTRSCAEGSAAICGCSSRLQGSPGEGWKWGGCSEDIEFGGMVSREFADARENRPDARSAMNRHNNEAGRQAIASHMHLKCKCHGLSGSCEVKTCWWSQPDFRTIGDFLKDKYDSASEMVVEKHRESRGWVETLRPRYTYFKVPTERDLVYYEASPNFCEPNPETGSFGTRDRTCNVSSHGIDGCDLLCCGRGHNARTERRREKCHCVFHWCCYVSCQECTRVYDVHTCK
smiles,measurement,setting,value
Cc1ccc2nc(N(CCCN(C)C)C(=O)c3ccc(S(=O)(=O)N4CCOCC4)cc3)sc2c1,EC50,[1],0.007 µM (active)
same,EC50,[2],< 0.1 µM (active)
same,EC50,[3],10.8 µM (active)
Cc1ccc(/C=N/Nc2ccc(C(=O)O)cc2)o1,AC50,[4],2.79 µM (active)
same,EC50,[5],11 µM (active)
O=C(Nc1nnc(Cc2c[nH]c3ccccc23)s1)c1ccc(Cl)cc1Cl,AC50,[6],49.2 µM (active)
CC1=NN(C(=O)CCc2ccc3c(c2)OCO3)C(O)(C(F)(F)F)C1 (centres undefined),EC50,[7],> 67.5 µM (inactive)
same,IC50,[8],> 67.5 µM (inactive)
Cc1nc(SCc2ccccc2F)c2oc3ccccc3c2n1,IC50,[9],> 100 µM (active)
c1ccc(-c2cc(-c3nnc4n3N=C(c3ccc5ccccc5c3)CS4)n[nH]2)cc1,CC50,[10],> 40 µM (active)
same,EC50,[2],1.63 µM (active)
same,EC50,[3],7.45 µM (active)
CC(C)(C)c1ccc(C(=O)Nn2c(CCC(=O)O)ccc2-c2cccs2)cc1,AC50,[6],45.1 µM (active)
C=C(C)CN=C(S)NN=C1c2ccccc2-c2ccccc21,EC50,[5],0.95 µM (active)
Oc1ccc(CCNc2ncnc3ccc(Cl)cc23)cc1,AC50,[11],43 µM (active)
same,AC50,[12],0.551 µM (active)
same,IC50,[13],5.5 µM (active)
same,AC50,[14],0.942 µM (active)
same,AC50,[15],1.57 µM (active)
same,AC50,[16],3.73 µM (active)
Cc1ccc(-c2ccc([C@@H]3[C@H](CO)N4CCCCN(S(=O)(=O)c5ccccc5C)C[C@@H]34)cc2)cc1,AC50,[17],0.589 µM (active)
same,AC50,[18],11 µM (active)
CC(=O)N1CCN(c2ccc(N)cc2)CC1,IC50,[19],16.2 µM (active)
same,AC50,[6],11.1 µM (active)
same,AC50,[4],1.06 µM (active)
c1ccc(Cc2c(-c3ccco3)nc3c4ccccc4ccn23)cc1,EC50,[7],> 67.5 µM (inactive)
same,IC50,[8],> 67.5 µM (inactive)
O=C(CCC1CCCN(Cc2cccc(Cl)c2)C1)NCc1ccccc1F (centres undefined),EC50,[1],0.045 µM (active)
same,EC50,[2],< 0.1 µM (active)
same,EC50,[3],> 30 µM (not active)
CCOc1ccc(NC(=O)CSc2ccccc2N)cc1,IC50,[9],> 100 µM (active)
CCC(=O)N1[C@H](CO)[C@H](c2ccc(C3=CCCC3)cc2)[C@H]1CNC1CCCC1,AC50,[17],5.63 µM (active)
same,AC50,[18],> 42 µM (inactive)
Cc1ccc(NC(S)=NNc2ncc(C(F)(F)F)cc2Cl)cc1,CC50,[10],> 40 µM (active)
CC(=O)c1cccc(NS(=O)(=O)c2ccc(-c3cnc(C4CC4)o3)cc2)c1,AC50,[11],47.3 µM (active)
same,IC50,[20],6.03 µM (active)
same,AC50,[12],5 µM (active)
same,IC50,[13],12.3 µM (inactive)
COc1cc(-c2nnc(O)o2)cc(OC)c1OC,CC50,[10],> 40 µM (active)
CC(C)(C)c1ccc(C(=O)CC(=O)c2cc(Cl)ccc2O)cc1,EC50,[21],1.9 µM (active)
same,EC50,[22],2.68 µM (active)
same,EC50,[23],0.192 µM (active)
same,EC50,[5],6.61 µM (active)
same,EC50,[24],136 µM (active)
